In patent publication US11155557B2, “Pyrazolopyrimidine compounds and methods of use thereof” (Genentech, Inc., priority 2016, dated 2021):

Assays:
[1] = system: JAK1-dependent STAT6 phosphorylation in BEAS-2B human bronchial epithelial cells; assay: JAK1 pathway assay: IL-13 stimulated STAT6 phosphorylation in BEAS-2B cells; type: cell-based; conditions: Homo sapiens, BEAS-2B, BEAS-2B cells, IL-13 stimulation; read-out: IL-13 p-STAT6 BEAS-2B IC50
Outline: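 BEAS-2B bronchial epithelial cells plated one day before, run in complete growth medium. Phospho-STAT6 in lysates measured by MesoScale Discovery; EC50 reported.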

[2] = target: isolated recombinant JAK2 kinase domain (Homo sapiens (Human), UniProt O60674); assay: JAK2 enzyme assay (Caliper LabChip, Ki); conditions: read-out: JAK2 Ki
isolated recombinant JAK2 kinase domain, sequence (O60674 849-1124): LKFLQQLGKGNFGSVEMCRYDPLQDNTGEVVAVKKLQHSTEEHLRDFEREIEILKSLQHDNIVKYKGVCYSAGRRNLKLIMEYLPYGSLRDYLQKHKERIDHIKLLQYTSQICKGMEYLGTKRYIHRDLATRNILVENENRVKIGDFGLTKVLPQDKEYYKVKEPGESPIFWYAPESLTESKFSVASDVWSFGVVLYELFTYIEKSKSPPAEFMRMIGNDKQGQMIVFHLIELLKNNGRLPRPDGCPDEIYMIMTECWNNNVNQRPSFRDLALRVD

[3] = target: isolated recombinant JAK1 kinase domain (Homo sapiens (Human), UniProt P23458); assay: JAK1 enzyme assay (Caliper LabChip, Ki); type: biochemical
isolated recombinant JAK1 kinase domain, sequence (P23458 875-1153): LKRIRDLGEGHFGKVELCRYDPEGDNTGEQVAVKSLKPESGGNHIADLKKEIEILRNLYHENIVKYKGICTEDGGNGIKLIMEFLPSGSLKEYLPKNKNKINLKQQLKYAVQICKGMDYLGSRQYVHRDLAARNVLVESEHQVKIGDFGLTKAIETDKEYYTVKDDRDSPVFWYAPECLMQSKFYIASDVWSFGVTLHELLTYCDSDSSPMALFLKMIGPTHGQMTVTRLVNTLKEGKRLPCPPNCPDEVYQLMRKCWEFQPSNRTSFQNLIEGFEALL
Experimental: The activity of the isolated recombinant JAK1 and JAK2 kinase domain was measured by monitoring phosphorylation of a peptide derived from JAK3 ([…] fluorescently labeled on the N-terminus with 5-carboxyfluorescein) using the Caliper LabChip R technology (Caliper Life Sciences, Hopkinton, Mass.).

SMILES	Ki [2] [nM]	Ki [3] [nM]	IC50 [1] [nM]
O=C(Nc1cn(CC(=O)N2CC(F)(F)C2)nc1-c1cc2c(cc1OC(F)F)NCCO2)c1cnn2cccnc12 [Example 138, N-[1-[2-(3,3-difluoroazetidin-1-yl)-2-oxo-ethyl]-3-[6-(difluoromethoxy)-3,4-dihydro-2H-1,4-benzoxazin-7-yl]pyrazol-4-yl]pyrazolo[1,5-a]pyrimidine-3-carboxamide]	0.32	0.26	36
N#CCn1cc(NC(=O)c2cnn3cccnc23)c(-c2cc3c(cc2OC(F)F)NCCS3)n1 [Example 140, N-[1-(cyanomethyl)-3-[6-(difluoromethoxy)-3,4-dihydro-2H-1,4-benzothiazin-7-yl]pyrazol-4-yl]pyrazolo[1,5-a]pyrimidine-3-carboxamide]	0.06	0.09	4
N#CCn1cc(NC(=O)c2cnn3cccnc23)c(-c2cc3c(cc2OC(F)F)NCCO3)n1 [Example 144, N-[1-(cyanomethyl)-3-[6-(difluoromethoxy)-3,4-dihydro-2H-1,4-benzoxazin-7-yl]pyrazol-4-yl]pyrazolo[1,5-a]pyrimidine-3-carboxamide]	0.11	0.14	7
Cn1cc(NC(=O)c2cnn3cccnc23)c(-c2cc3c(cc2OC(F)F)NC2(COC2)CO3)n1 [Example 147, N-(3-(6-(difluoromethoxy)-2,4-dihydrospiro[benzo[b][1,4]oxazine-3,3′-oxetan]-7-yl)-1-methyl-1H-pyrazol-4-yl)pyrazolo[1,5-a]pyrimidine-3-carboxamide]	0.32	0.34	14
C[C@H]1CNc2cc(OC(F)F)c(-c3n[nH]cc3NC(=O)c3cnn4cccnc34)cc2O1 [Example 148, (S)—N-(3-(6-(difluoromethoxy)-2-methyl-3,4-dihydro-2H-benzo[b][1,4]oxazin-7-yl)-1H-pyrazol-4-yl)pyrazolo[1,5-a]pyrimidine-3-carboxamide]	0.17	0.51	55
Cn1cc(NC(=O)c2cnn3cccnc23)c(-c2cc3c(cc2OC(F)F)NCC(C)(C)O3)n1 [Example 149, N-(3-(6-(difluoromethoxy)-2,2-dimethyl-3,4-dihydro-2H-benzo[b][1,4]oxazin-7-yl)-1-methyl-1H-pyrazol-4-yl)pyrazolo[1,5-a]pyrimidine-3-carboxamide]	0.64	1.33	43
CC(C)OC(=O)n1cc(NC(=O)c2cnn3cccnc23)c(-c2cc3c(cc2OC(F)F)NCCO3)n1 [Example 154, Propan-2-yl 3-[6-(difluoromethoxy)-3,4-dihydro-2H-1,4-benzoxazin-7-yl]-4-[pyrazolo[1,5-a]pyrimidine-3-amido]-1H-pyrazole-1-carboxylate]	0.38	0.4	22

More lines, main results first:

Ki [2] [nM]	Ki [3] [nM]	SMILES	IC50 [1] [nM]
0.21	0.33	O=C(Nc1cn(C2COC2)nc1-c1cc2sncc2cc1OC(F)F)c1cnn2cccnc12 [Example 139, N-[3-[5-(difluoromethoxy)-1,2-benzothiazol-6-yl]-1-(oxetan-3-yl)pyrazol-4-yl]pyrazolo[1,5-a]pyrimidine-3-carboxamide]	10
0.97	0.22	CN(C)C(=O)Cn1cc(NC(=O)c2cnn3cccnc23)c(-c2cc3cnsc3cc2OC(F)F)n1 [Example 143, N-[3-[6-(difluoromethoxy)-1,2-benzothiazol-5-yl]-1-[2-(dimethylamino)-2-oxo-ethyl]pyrazol-4-yl]pyrazolo[1,5-a]pyrimidine-3-carboxamide]	13
0.61	1.65	O=C(Nc1c[nH]nc1-c1cc2c(cc1OC(F)F)OCCO2)c1cnn2cccnc12 [Example 150, N-(3-(7-(difluoromethoxy)-2,3-dihydrobenzo[b][1,4]dioxin-6-yl)-1H-pyrazol-4-yl)pyrazolo[1,5-a]pyrimidine-3-carboxamide]	61
0.25	0.77	O=C(Nc1c[nH]nc1-c1cc2c(cc1OC(F)F)SCCO2)c1cnn2cccnc12 [Example 151, N-(3-(6-(difluoromethoxy)-2,3-dihydrobenzo[b][1,4]oxathiin-7-yl)-1H-pyrazol-4-yl)pyrazolo[1,5-a]pyrimidine-3-carboxamide]	30
0.06	0.1	O=C(Nc1c[nH]nc1-c1cc2sncc2cc1OC(F)F)c1cnn2cccnc12 [Example 152, N-(3-(5-(difluoromethoxy)benzo[d]isothiazol-6-yl)-1H-pyrazol-4-yl)pyrazolo[1,5-a]pyrimidine-3-carboxamide]	4
0.08	0.15	O=C(Nc1c[nH]nc1-c1cc2cnsc2cc1OC(F)F)c1cnn2cccnc12 [Example 153, N-(3-(6-(difluoromethoxy)benzo[d]isothiazol-5-yl)-1H-pyrazol-4-yl)pyrazolo[1,5-a]pyrimidine-3-carboxamide]	5
